# In patent US20130310379A1, “MODULATORS OF METHYL MODIFYING ENZYMES, COMPOSITIONS AND USES THEREOF” (CONSTELLATION PHARMACEUTICALS, priority 2010, published 2013):
# Biological target: EZH2 (Homo sapiens, UniProt Q15910)
# Assay: EZH2 assay: rPRC2 with biotinylated oligonucleosome substrates and 3H SAM, FlashPlate scintillation counting, IC50
# Assay type: biochemical
# Details: rPRC2, biotinylated oligonucleosome substrates, 3H SAM; read-out: EZH2 IC50
# In short: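 rPRC2 (2 nM EZH2) pre-incubated 20 min with compound (80 to 0.16 uM, ten 2-fold steps), then 60 min reaction with 0.2 uM 3H SAM, 0.2 uM biotinylated oligonucleosomes, 3.6 uM H3K27me3 peptide in Tris pH 8.5. SAH/EDTA quench; 4-parameter IC50 fit.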
# Chain of EZH2 (Q15910 whole entry): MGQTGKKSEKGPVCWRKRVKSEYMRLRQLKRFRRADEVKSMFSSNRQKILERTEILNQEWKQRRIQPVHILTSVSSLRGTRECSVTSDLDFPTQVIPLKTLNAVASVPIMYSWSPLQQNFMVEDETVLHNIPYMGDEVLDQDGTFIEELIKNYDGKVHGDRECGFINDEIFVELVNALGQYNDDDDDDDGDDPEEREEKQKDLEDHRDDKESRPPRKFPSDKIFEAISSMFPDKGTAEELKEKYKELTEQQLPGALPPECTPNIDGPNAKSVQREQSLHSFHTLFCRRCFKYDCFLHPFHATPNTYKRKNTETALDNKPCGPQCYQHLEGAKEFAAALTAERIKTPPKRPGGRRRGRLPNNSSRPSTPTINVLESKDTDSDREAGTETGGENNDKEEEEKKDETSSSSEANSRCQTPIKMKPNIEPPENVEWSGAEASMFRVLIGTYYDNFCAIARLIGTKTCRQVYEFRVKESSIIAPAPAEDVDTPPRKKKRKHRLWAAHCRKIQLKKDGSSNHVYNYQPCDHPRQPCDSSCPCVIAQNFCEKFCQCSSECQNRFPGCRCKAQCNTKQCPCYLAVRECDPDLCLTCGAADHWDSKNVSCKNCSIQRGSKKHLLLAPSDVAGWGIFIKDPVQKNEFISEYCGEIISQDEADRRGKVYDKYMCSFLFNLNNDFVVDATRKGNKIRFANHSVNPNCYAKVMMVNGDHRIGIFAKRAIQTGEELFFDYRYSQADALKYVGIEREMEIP
# Chain of EZH2 (O75530 whole entry partner): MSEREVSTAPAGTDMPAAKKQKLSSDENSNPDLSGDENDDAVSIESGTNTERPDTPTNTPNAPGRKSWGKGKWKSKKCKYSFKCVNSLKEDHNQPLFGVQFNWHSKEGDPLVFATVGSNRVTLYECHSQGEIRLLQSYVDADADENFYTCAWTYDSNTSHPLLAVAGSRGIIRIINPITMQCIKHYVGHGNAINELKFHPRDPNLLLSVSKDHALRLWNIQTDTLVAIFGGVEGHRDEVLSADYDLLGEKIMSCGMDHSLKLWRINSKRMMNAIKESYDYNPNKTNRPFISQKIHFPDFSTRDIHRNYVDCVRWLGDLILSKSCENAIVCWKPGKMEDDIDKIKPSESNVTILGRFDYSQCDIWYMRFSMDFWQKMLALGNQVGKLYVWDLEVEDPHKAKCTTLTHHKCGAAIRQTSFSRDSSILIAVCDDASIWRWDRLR
# Chain of EZH2 (Q15022 whole entry partner): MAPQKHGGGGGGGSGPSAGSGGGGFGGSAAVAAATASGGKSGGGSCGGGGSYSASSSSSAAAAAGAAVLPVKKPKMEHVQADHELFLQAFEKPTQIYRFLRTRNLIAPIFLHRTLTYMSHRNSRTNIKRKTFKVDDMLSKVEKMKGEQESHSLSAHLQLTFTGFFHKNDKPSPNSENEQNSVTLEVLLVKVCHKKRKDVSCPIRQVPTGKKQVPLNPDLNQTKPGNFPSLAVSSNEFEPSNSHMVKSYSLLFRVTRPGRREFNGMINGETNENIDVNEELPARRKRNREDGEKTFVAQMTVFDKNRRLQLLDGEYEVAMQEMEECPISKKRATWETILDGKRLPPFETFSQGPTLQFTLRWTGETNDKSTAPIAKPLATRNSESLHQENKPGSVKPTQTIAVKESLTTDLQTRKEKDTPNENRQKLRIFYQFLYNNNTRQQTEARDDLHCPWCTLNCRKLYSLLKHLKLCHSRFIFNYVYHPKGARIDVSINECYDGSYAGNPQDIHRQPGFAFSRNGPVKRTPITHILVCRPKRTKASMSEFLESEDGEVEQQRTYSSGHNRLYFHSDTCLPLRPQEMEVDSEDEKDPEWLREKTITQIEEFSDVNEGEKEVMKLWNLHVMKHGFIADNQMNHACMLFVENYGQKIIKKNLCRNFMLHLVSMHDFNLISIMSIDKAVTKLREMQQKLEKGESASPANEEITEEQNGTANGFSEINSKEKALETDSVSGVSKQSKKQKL
row,Structure (SMILES),IC50 [µM]
1,CN(C)C(=O)Cc1cccc(Oc2ccc(C(=O)NC3CC(C)(C)NC(C)(C)C3)cc2Cl)c1C#N [Compound I-464],> 80
2,CN(C)C(=O)c1ccccc1Oc1ccc(C(=O)NC2CC(C)(C)NC(C)(C)C2)cc1Cl [Compound I-246],20 to 80
3,"CC(Oc1ccccc1)c1ccc(C(=O)NC2CC(C)(C)NC(C)(C)C2)cc1 (stereo not drawn) [Compound I-118, 4-(1-phenoxyethyl)-N-(2,2,6,6-tetramethylpiperidin-4-yl)benzamide]",> 80
4,CC1(C)CC(C(=O)Nc2ccc(Oc3cccc(-c4cn[nH]c4)c3C#N)c(Cl)c2)CC(C)(C)N1 [Compound I-449],5 to 20
5,COCCNC(=O)CCc1cccc(Oc2ccc(C(=O)NC3CC(C)(C)NC(C)(C)C3)cc2Cl)c1C#N [Compound I-554],< 5
6,CC1(C)CC(NC(=O)c2ccc(Oc3ccncc3)cc2)CC(C)(C)N1 [Compound I-319],> 80
7,CC1(C)CC(NC(=O)c2ccc(Oc3ccccc3C#N)c(Cl)c2)CC(C)(C)N1 [Compound I-2],< 5
8,CC1(C)CC(NC(=O)c2ccc(Oc3cccc4cccnc34)cc2)CC(C)(C)N1 [Compound I-331],20 to 80
9,CC1(C)CC(NC(=O)c2ccc(Oc3ccccc3C#N)c3ccccc23)CC(C)(C)N1 [Compound I-270],< 5
10,CN(C)C(=O)CCc1cccc(Oc2ccc(C(=O)NC3CC(C)(C)NC(C)(C)C3)cc2Cl)c1C#N [Compound I-552],< 5
11,CC1(C)CC(NC(=O)c2ccc(Oc3cccc4c[nH]c(=O)cc34)cc2)CC(C)(C)N1 [Compound I-370],20 to 80
12,CC1(C)CC(NC(=O)c2ccc(COc3cccc(-c4cnc5[nH]ccc5c4)c3)cc2)CC(C)(C)N1 [Compound I-5],< 5
13,Cc1cc(C(=O)NC2CC(C)(C)NC(C)(C)C2)ccc1Oc1cccc(C(C)C)c1C#N [Compound I-267],< 5
14,CC1(C)CC(NC(=O)c2ccc3cc(Oc4ccccc4C#N)ccc3c2)CC(C)(C)N1 [Compound I-200],20 to 80
15,CC(C)NC(=O)c1ccc(Oc2ccccc2)cc1 [Compound I-96],> 80
16,CC1(C)CC(C)(NC(=O)c2ccc(Oc3cccc(-c4ccnnc4)c3C#N)c(Cl)c2)CC(C)(C)N1 [Compound I-507],20 to 80
17,CCN1C(C)(C)CC(NC(=O)c2ccc(Oc3ccccc3C#N)c(Cl)c2)CC1(C)C [Compound I-276],5 to 20
18,CC1(C)CC(NC(=O)c2ccc(Oc3cccc(CCC(N)=O)c3C#N)c(Cl)c2)CC(C)(C)N1 [Compound I-501],< 5
19,CC1(C)CC(NC(=O)c2ccc(COc3cccc4cccnc34)cc2)CC(C)(C)N1 [Compound I-189],20 to 80
20,COc1ccc(Oc2ccc(C(=O)NC3CC(C)(C)NC(C)(C)C3)cc2)c(C#N)c1 [Compound I-177],> 80
21,O=C(NC1CCCCC1)c1ccc(Oc2ccccc2)cc1 [Compound I-134],> 80
22,Cc1ccc(OCc2ccc(C(=O)NC3CC(C)(C)NC(C)(C)C3)cc2)cc1C [Compound I-15],5 to 20
23,CC1(C)CC(NC(=O)c2ccc(Oc3ncccn3)cc2)CC(C)(C)N1 [Compound I-79],> 80
24,CC1(C)CC(NC(=O)c2ccc(COc3cccnc3)cc2)CC(C)(C)N1 [Compound I-36],20 to 80

row,Structure (SMILES),IC50 [µM]
1,CC1(C)CC(NC(=O)c2ccc(Oc3cccc(-c4ccnnc4)c3C#N)c(Cl)c2)CC(C)(C)S1 [Compound I-517],5 to 20
2,Cn1cc(-c2ccccc2Oc2ccc(C(=O)NC3CC(C)(C)NC(C)(C)C3)cc2Cl)nn1 [Compound I-363],< 5
3,CC1(C)CC(NC(=O)c2ccc(OC3CCNCC3)c(Cl)c2)CC(C)(C)N1 [Compound I-382],> 80
4,CC1(C)CC(NC(=O)c2ccc(Oc3cccc(C(N)=O)c3C#N)c(Cl)c2)CC(C)(C)N1 [Compound I-394],5 to 20
5,CC1(C)CC(NC(=O)c2ccc(Oc3cccc(OCC(N)=O)c3C#N)c(Cl)c2)CC(C)(C)N1 [Compound I-487],< 5
6,Cc1ccc(-c2cccc(OCc3ccc(C(=O)NC4CC(C)(C)NC(C)(C)C4)cc3)c2)cn1 [Compound I-14],5 to 20
7,CC1(C)CC(NC(=O)c2ccc(COc3cccc4ccccc34)cc2)CC(C)(C)N1 [Compound I-4],< 5
8,CC1(C)CC(NC(=O)c2ccc(Oc3cccc(CN4CCCCC4=O)c3)c(Cl)c2)CC(C)(C)N1 [Compound I-446],5 to 20
9,"CN(C(=O)c1ccc(Oc2ccccc2)cc1)C1CCNCC1 [Compound I-125, N-Methyl-4-phenoxy-N-(piperidin-4-yl)benzamide 2,2,2-trifluoroacetate]",> 80
10,CC1(C)CC(NC(=O)c2ccc(Oc3ccccc3C#N)c(C(F)(F)F)c2)CC(C)(C)N1 [Compound I-218],< 5
11,CC1(C)CC(C#N)(NC(=O)c2ccc(Oc3cccc(-c4ccnnc4)c3C#N)c(Cl)c2)CC(C)(C)N1 [Compound I-456],< 5
12,N#Cc1ccccc1Oc1ccc(C(=O)NC2CCNC(=O)C2)cc1Cl (stereo not drawn) [Compound I-403],> 80
13,N#Cc1c(Br)cccc1Oc1ccc(C(=O)NC2CCNCC2)cc1Cl [Compound I-407],> 80
14,Cc1ccc(C#N)c(Oc2ccc(C(=O)NC3CC(C)(C)NC(C)(C)C3)cc2)c1 [Compound I-158],20 to 80
15,CCOC(=O)c1cccc(Oc2ccc(C(=O)NC3CC(C)(C)NC(C)(C)C3)cc2)c1 [Compound I-34],20 to 80
16,CC1(C)CC(NC(=O)c2ccc(Oc3cccc(CC(N)=O)c3C#N)c(Cl)c2)CC(C)(C)N1 [Compound I-469],< 5
17,CC1(C)CC(NC(=O)c2ccc(Oc3cccc(C(=O)O)c3)c(Cl)c2)CC(C)(C)N1 [Compound I-354],> 80
18,C#Cc1ccccc1Oc1ccc(C(=O)NC2CC(C)(C)NC(C)(C)C2)cc1 [Compound I-224],5 to 20
19,CC1(C)CC(NC(=O)c2ccc(NC(=O)c3cccc(Br)c3)cc2)CC(C)(C)N1 [Compound I-162],20 to 80
20,CC1(C)CC(NC(=O)c2ccc(Oc3ccccc3C3=CCNCC3)c(Cl)c2)CC(C)(C)N1 [Compound I-229],5 to 20
21,CC1(C)CC(NC(=O)c2ccc(COc3cccc4c3CCCC4)cc2)CC(C)(C)N1 [Compound I-188],< 5
22,CC1(C)CC(NC(=O)c2ccc(Oc3ccccc3C(C)(C)C)c(Cl)c2)CC(C)(C)N1 [Compound I-210],20 to 80
23,CC1(C)CC(NC(=O)c2ccc(Oc3cccc4cccnc34)c(Cl)c2)CC(C)(C)N1 [Compound I-346],5 to 20
24,CC1(C)CC(NC(=O)c2ccc(COc3cccnc3Cl)cc2)CC(C)(C)N1 [Compound I-77],> 80

row,Structure (SMILES),IC50 [µM]
1,CC1(C)CC(NC(=O)c2ccc(Oc3ncccc3C#N)c(Cl)c2)CC(C)(C)N1 [Compound I-249],5 to 20
2,CC1(C)CC(NC(=O)c2ccc(Oc3cccc(-c4ccc(C#N)cc4)c3C#N)c(Cl)c2)CC(C)(C)N1 [Compound I-506],< 5
3,O=C(c1ccc(Oc2ccccc2)cc1)N1CCN(c2ccccc2)CC1 [Compound I-99],> 80
4,"CC1(C)CC(NC(=O)c2ccc(Oc3ccccc3)nc2)CC(C)(C)N1 [Compound I-64, 6-Phenoxy-N-(2,2,6,6-tetramethylpiperidin-4-yl)nicotinamide]",20 to 80
5,COCc1ccccc1Oc1ccc(C(=O)NC2CC(C)(C)NC(C)(C)C2)cc1 [Compound I-248],20 to 80
6,CC(=O)N1CCC(c2cccc(Oc3ccc(C(=O)NC4CC(C)(C)NC(C)(C)C4)cc3Cl)c2C#N)CC1 [Compound I-537],< 5
7,N#Cc1ccccc1Oc1ccc(C(=O)N[C@H]2C[C@H]3CC[C@@H](C2)N3)cc1Cl [Compound I-408],> 80
8,Cc1cc(C)cc(Oc2ccc(C(=O)NC3CC(C)(C)NC(C)(C)C3)cc2)c1 [Compound I-119],> 80
9,"CC(=O)Nc1cccc(Oc2ccc(C(=O)NC3CC(C)(C)NC(C)(C)C3)cc2)c1 [Compound I-26, 4-(3-Acetamidophenoxy)-N-(2,2,6,6-tetramethylpiperidin-4-yl)benzamide]",20 to 80
10,CC1(C)CC(NC(=O)c2ccc(-n3ccc4c(O)cccc43)c(Cl)c2)CC(C)(C)N1 [Compound I-492],< 5
11,CC1(C)CC(NC(=O)c2ccc(COc3ccc(C#N)cc3)cc2)CC(C)(C)N1 [Compound I-67],20 to 80
12,CNC(C)c1cccc(Oc2ccc(C(=O)NC3CC(C)(C)NC(C)(C)C3)cc2Cl)c1 (stereo not drawn) [Compound I-443],5 to 20
13,CC1(C)CC(NC(=O)c2ccc(Oc3cccc(Br)c3)cc2)CC(C)(C)N1 [Compound I-180],20 to 80
14,CC(=O)Nc1ccc(-c2cccc(OCc3ccc(C(=O)NC4CC(C)(C)NC(C)(C)C4)cc3)c2)cn1 [Compound I-593],< 5
15,CC1(C)CC(NC(=O)c2ccc(Oc3ccccc3C3CCCCC3)c(Cl)c2)CC(C)(C)N1 [Compound I-195],5 to 20
16,"Cc1cncc(-c2cccc(OCc3ccc(C(=O)NC4CC(C)(C)NC(C)(C)C4)cc3)c2)c1 [Compound I-13, 4-((3-(5-methylpyridin-3-yl)phenoxy)methyl)-N-(2,2,6,6-tetramethylpiperidin-4-yl)benzamide]",5 to 20
17,CC1(C)CC(NC(=O)c2ccc(N3CCOC(c4ccccc4)C3)c(Cl)c2)CC(C)(C)N1 (stereo not drawn) [Compound I-416],> 80
18,CC1(C)CC(NC(=O)c2cccc(-c3ccccc3)c2)CC(C)(C)N1 [Compound I-105],> 80
19,CC1(C)CC(NC(=O)c2ccc(Oc3ccccc3C#N)c(-c3cncnc3)c2)CC(C)(C)N1 [Compound I-202],5 to 20
20,CC1(C)CC(NC(=O)c2ccc(OCc3cccc(F)c3)cc2)CC(C)(C)N1 [Compound I-88],> 80
21,CC1(C)CC(NC(=O)c2ccc(Oc3cccc(C#N)c3)cc2)CC(C)(C)N1 [Compound I-17],5 to 20
22,CC1(C)CC(NC(=O)c2ccc(Oc3cccc4c3CCCC4)cc2)CC(C)(C)N1 [Compound I-181],5 to 20
23,CC1(C)CC(NC(=O)c2ccc(Oc3cccc4cnc(N)cc34)cc2)CC(C)(C)N1 [Compound I-350],5 to 20
24,CC1(C)CC(NC(=O)c2ccc(Oc3ccccc3-c3ccccc3)c(Cl)c2)CC(C)(C)N1 [Compound I-206],< 5
